From patent US20230381142A1, “ANTILEISHMANIAL COMPOUNDS, COMPOSITIONS AND USE THEREOF” (TRUSTEES OF BOSTON UNIVERSITY, priority 2022, published 2023)
Read-outs that look alike come from different tables or passages of the source.

Assays:
[1] = GSK inMac assay, host cell toxicity readout (LD MAC); assay type: cell-based, human; settings: human
Description: (§1) The intramacrophage Leishmania donovani activity assay (LD AMMAC) at GlaxoSmithKline was performed as described.
(§2) Given the literature precedents described above and the apparent narrow tolerance for R^3 substitutions observed in the primary screen compounds, a thorough and methodical assessment was undertaken of tolerated groups at the three points of diversity (R^1/R^2/R^3) for the core. At this stage of the project, all analogues were assessed using a battery of assays performed in-house at GlaxoSmithKline. For antileishmanial activity, GSK's inMac assay was utilized. This assay provides two readouts of compound potency: average number of intracellular amastigotes per infected cell (AMMAC) EC50, percentage of infected cells per well (INFCELL) EC50, as well as a toxicity output derived from the number of host cells (MAC EC50). In addition, compounds were assessed for toxicity against HepG2 cells (HEPG2 EC50). Here, AMMAC EC50 values were focused on for relative potency assessments. […] It should be noted that for all compounds assessed in this project, the measured toxicity against THP-1 macrophages either equaled or exceeded that of HepG2 hepatocytes, therefore the MAC SI is used here as the more conservative estimate of therapeutic index.

[2] = tested on: L. donovani intracellular amastigotes infecting THP-1 macrophages; assay: GSK intramacrophage L. donovani assay (LD AMMAC, inMac; Assay Conditions C); assay type: cell-based; settings: Leishmania donovani
Description: Assay Conditions C: The intramacrophage Leishmania donovani activity assay was performed as described in Antimicrob Agents Chemother (2013) 57(7):2913-22.
as §1, §2

[3] = footnote c, read-out: THP-1 Host Cell CC50
[4] = THP-1 cells, values marked c, read-out: L. donovani amastigotes EC50 (THP-1 cells)
[5] = values marked c: THP-1 cells, read-out: L. donovani amastigotes EC50 (μM, THP-1 or B10R cells)

Compound | CC50 [1, 3] [µM] | EC50 [2, 4] [µM] | CC50 ([1]; host THP-1 cells) [µM] | EC50 [2, 5] [µM]
CC(C)Cc1n[nH]c2c1C(c1ccc(F)cc1)N(c1ccc(C(C)(C)C)cc1)C2=O (stereo not shown) [BUCMD00816] | > 50 | 10 | – | –
CC(C)Cc1n[nH]c2c1C(c1ccc(F)cc1)N(C(CO)CO)C2=O (stereo not shown) [BUCMD00817] | > 50 | > 50 | – | –
COc1ccc(N2C(=O)c3[nH]nc(CC(C)C)c3C2c2cccc(C(F)(F)F)c2)cc1 (stereo not shown) [CMLD007432] | 15.9 | 6.3 | – | –
CC(C)Cc1nn(-c2ccc(OC(F)(F)F)cc2)c2c1C(c1ccccc1)NC2=O (stereo not shown) [CMLD009657] | – | – | ≥ 50.1 | 12.6
CC(C)Cc1n[nH]c2c1C(c1ccc(F)cc1)N(Cc1ccc(C(F)(F)F)cn1)C2=O (stereo not shown) [CMLD010848] | > 50 | 39.8 | – | –
COc1ccc(N2C(=O)c3[nH]nc(CCc4ccccc4)c3C2c2ccc(F)cc2)cc1 (stereo not shown) [CMLD010849] | 25.1 | 6.3 | – | –
COc1cccc(N2C(=O)c3[nH]nc(CC(C)C)c3C2c2ccsc2)c1 (stereo not shown) [CMLD010880] | 39.8 | 20 | – | –
COc1cccc(N2C(=O)c3[nH]nc(CC(C)C)c3C2c2ccccc2Cl)c1 (stereo not shown) [CMLD010881] | 15.8 | 7.9 | – | –
COc1ccc(N2C(=O)c3[nH]nc(CC(C)C)c3C2C2CCN(Cc3ccccc3)CC2)cc1 (stereo not shown) [CMLD010882] | 20 | 15.9 | – | –
COc1cncc(N2C(=O)c3[nH]nc(CC(C)C)c3C2c2ccc(F)cc2)c1 (stereo not shown) [CMLD010883] | > 50 | 31.6 | – | –
CC(C)Cc1n[nH]c2c1C(c1ccc(F)cc1)N(c1ccc(OC(F)(F)F)cc1)C2=O (stereo not shown) [CMLD010885] | 7.9 | 3.2 | – | –
COc1ccc(N2C(=O)c3[nH]nc(CC(C)C)c3C2c2cncc(OC)c2)cc1 (stereo not shown) [CMLD010886] | 20 | 10 | – | –
COc1ccc(N2C(=O)c3[nH]nc(CC(C)C)c3C2c2ccncn2)cc1 (stereo not shown) [CMLD010887] | > 50 | > 50 | – | –
COc1ccc(N2C(=O)c3[nH]nc(CC(C)C)c3C2c2ccc(Br)cc2)cc1 (stereo not shown) [CMLD010889] | 15.9 | 6.3 | – | –
COc1ccc(N2C(=O)c3[nH]nc(CC(C)C)c3C2c2cccc(F)c2)cc1 (stereo not shown) [CMLD010890] | 12.6 | 5 | – | –
COc1ccc(N2C(=O)c3[nH]nc(CC(C)C)c3C2c2cccc(Br)c2)cc1 (stereo not shown) [CMLD010891] | 25.1 | 7.9 | – | –
COc1ccc(N2C(=O)c3[nH]nc(CC(C)C)c3C2C2CCCCC2)cc1 (stereo not shown) [CMLD010892] | 25.1 | 7.9 | – | –
COc1ccc(N2C(=O)c3[nH]nc(CC(C)C)c3C2c2ccccc2Br)cc1 (stereo not shown) [CMLD010894] | 25.1 | 0.5 | – | –
COc1cccc(N2C(=O)c3[nH]nc(CC(C)C)c3C2c2ccc(F)cc2)c1 (stereo not shown) [CMLD010895] | 31.6 | 12.6 | – | –
COc1cc(N2C(=O)c3[nH]nc(CC(C)C)c3C2c2ccc(F)cc2)cc(OC)c1OC (stereo not shown) [CMLD010896] | 3.2 | 4 | – | –
CC(C)Cc1n[nH]c2c1C(c1ccc(F)cc1)N(c1ccc(Br)cc1)C2=O (stereo not shown) [CMLD010897] | 15.9 | 1.3 | – | –
COc1ccc(N2C(=O)c3[nH]nc(CC(C)C)c3C2c2cccc(C(F)(F)F)c2)cn1 (stereo not shown) [CMLD010898] | 20 | 2 | – | –
CCc1ccc(N2C(=O)c3[nH]nc(CC(C)C)c3C2c2ccc(F)cc2)cc1 (stereo not shown) [CMLD010899] | 20 | 4 | – | –
CCOc1ccc(N2C(=O)c3[nH]nc(CC(C)C)c3C2c2ccc(F)cc2)cc1 (stereo not shown) [CMLD010900] | 20 | 1.6 | – | –
COc1ccc(N2C(=O)c3[nH]nc(CC(C)C)c3C2C2CCCCC2)cn1 (stereo not shown) [CMLD010903] | 31.6 | 20 | – | –

Compound | CC50 [1, 3] [µM] | EC50 [2, 4] [µM] | CC50 ([1]; host THP-1 cells) [µM] | EC50 [2, 5] [µM]
CC(C)Cc1n[nH]c2c1C(c1cccc(C(F)(F)F)c1)N(c1ccc(-n3ccnc3)cc1)C2=O (stereo not shown) [CMLD010924] | – | – | 39.8 | ≥ 50.1
CC(C)Cc1n[nH]c2c1C(c1cccc(C(F)(F)F)c1)N(c1ccc(N(C)C)cc1)C2=O (stereo not shown) [CMLD010925] | 20 | 7.9 | – | –
Cc1cc(F)ccc1C1c2c(CC(C)C)n[nH]c2C(=O)N1c1ccc(-n2ccnc2)cc1 (stereo not shown) [CMLD010926] | 25.1 | 1.3 | – | –
COc1ccc(N2C(=O)c3[nH]nc(CC(C)C)c3[C@@H]2c2ccc(F)cc2C)cc1 [CMLD010949] | 39.8 | 0.5 | – | –
COc1ccc(N2C(=O)c3[nH]nc(CC(C)C)c3[C@H]2c2ccc(F)cc2C)cc1 [CMLD010950] | 31.6 | 6.3 | – | –
COc1ccc(N2C(=O)c3[nH]nc(CC(C)C)c3[C@@H]2c2ccccc2Br)cn1 [CMLD010976] | 20 | 1 | – | –
COc1ccc(N2C(=O)c3[nH]nc(CC(C)C)c3C2C2CCCC2)cc1 (stereo not shown) [CMLD010978] | 20 | 12.6 | – | –
COc1ccc(N2C(=O)c3[nH]nc(-c4ccc(CC(C)C)cc4)c3C2c2ccc(F)cc2)cc1 (stereo not shown) [CMLD010979] | 7.9 | 4 | – | –
COc1ccc(N2C(=O)c3[nH]nc(-c4ccc5c(c4)CCC5)c3C2c2ccc(F)cc2)cc1 (stereo not shown) [CMLD010980] | 7.9 | 5 | – | –
COc1ccc(N2C(=O)c3[nH]nc(CCC=C(C)C)c3C2c2ccc(F)cc2)cc1 (stereo not shown) [CMLD010981] | 20 | 6.3 | – | –
CCCn1nc(CC(C)C)c2c1C(=O)N(c1ccc(OC)cc1)C2c1ccc(F)cc1 (stereo not shown) [CMLD010982] | 25.1 | 5 | – | –
C=CCn1nc2c(c1CC(C)C)C(c1ccc(F)cc1)N(c1ccc(OC)cc1)C2=O (stereo not shown) [CMLD010984] | – | – | 31.6 | 6.3
C=CCn1nc(CC(C)C)c2c1C(=O)N(c1ccc(OC)cc1)C2c1ccc(F)cc1 (stereo not shown) [CMLD010985] | 31.6 | 2.5 | – | –
COc1ccc(N2C(=O)c3nn(C)c(CC(C)C)c3C2c2ccc(F)cc2)cc1 (stereo not shown) [CMLD010988] | – | – | 25.1 | 7.9
COc1ccc(N2C(=O)c3c(c(CC(C)C)nn3C)C2c2ccc(F)cc2)cc1 (stereo not shown) [CMLD010989] | 25.1 | 1.6 | – | –
CCCn1nc2c(c1CC(C)C)C(c1ccc(F)cc1)N(c1ccc(OC)cc1)C2=O (stereo not shown) [CMLD010990] | – | – | 25.1 | 7.9
COc1ccc(N2C(=O)c3[nH]nc(CC(C)C)c3C2c2cncs2)cc1 (stereo not shown) [CMLD010991] | > 50 | 15.9 | – | –
COc1ccc(N2C(=O)c3[nH]nc(CC(C)C)c3C2c2ccc(F)cc2)c(OC)c1 (stereo not shown) [CMLD010992] | 31.6 | 20 | – | –
CC(C)Cc1n[nH]c2c1[C@H](c1ccc(F)cc1)N(c1ccc3ncnn3c1)C2=O [CMLD010993] | 25.1 | 10 | – | –
COc1ccc(N2C(=O)c3[nH]nc(CC(C)C)c3C2c2ccccc2OC)cc1 (stereo not shown) [CMLD010994] | 25.1 | 0.5 | – | –
COc1ccc(N2C(=O)c3[nH]nc(CC(C)C)c3C2c2cc(C(F)(F)F)ccc2C(F)(F)F)cc1 (stereo not shown) [CMLD010996] | 25.1 | 6.3 | – | –
CC(C)Cc1n[nH]c2c1C(c1ccccc1Cl)N(c1ccc(-n3ccnc3)cc1)C2=O (stereo not shown) [CMLD010998] | ≥ 50.1 | 6.3 | – | –
C=CCCc1n[nH]c2c1C(c1ccc(F)cc1)N(c1ccc(OC)cc1)C2=O (stereo not shown) [CMLD011024] | 3.2 | 1.6 | – | –
C=C(C)CCc1n[nH]c2c1C(c1ccc(F)cc1)N(c1ccc(OC)cc1)C2=O (stereo not shown) [CMLD011025] | 1.6 | 0.5 | – | –
COc1ccc(CN2C(=O)c3[nH]nc(CC(C)C)c3C2c2ccc(F)cc2)cc1 (stereo not shown) [CMLD011026] | 31.6 | 12.6 | – | –
